Reference: publication PMC3639963, “A New Class of Small Molecule Inhibitor of BMP Signaling” (PLoS ONE, 2013)

Experiments:
Assay in all cases: Nanosyn kinase profiling
Format in all cases: biochemical
[1] = molecular target: T1, ARG (Homo sapiens, UniProt P42684); settings: for inhibition at 0.1 µM / inhibition at 1 µM: read-out: Percentage inhibition; for inhibition at 1 µM: 1 µM inhibitor
T1 construct: purchased Nanosyn (enzymatic panel); SGC in-house recombinant human kinases (DSF panel); Invitrogen (ALK1-6)
T1 sequence (P42684 whole entry): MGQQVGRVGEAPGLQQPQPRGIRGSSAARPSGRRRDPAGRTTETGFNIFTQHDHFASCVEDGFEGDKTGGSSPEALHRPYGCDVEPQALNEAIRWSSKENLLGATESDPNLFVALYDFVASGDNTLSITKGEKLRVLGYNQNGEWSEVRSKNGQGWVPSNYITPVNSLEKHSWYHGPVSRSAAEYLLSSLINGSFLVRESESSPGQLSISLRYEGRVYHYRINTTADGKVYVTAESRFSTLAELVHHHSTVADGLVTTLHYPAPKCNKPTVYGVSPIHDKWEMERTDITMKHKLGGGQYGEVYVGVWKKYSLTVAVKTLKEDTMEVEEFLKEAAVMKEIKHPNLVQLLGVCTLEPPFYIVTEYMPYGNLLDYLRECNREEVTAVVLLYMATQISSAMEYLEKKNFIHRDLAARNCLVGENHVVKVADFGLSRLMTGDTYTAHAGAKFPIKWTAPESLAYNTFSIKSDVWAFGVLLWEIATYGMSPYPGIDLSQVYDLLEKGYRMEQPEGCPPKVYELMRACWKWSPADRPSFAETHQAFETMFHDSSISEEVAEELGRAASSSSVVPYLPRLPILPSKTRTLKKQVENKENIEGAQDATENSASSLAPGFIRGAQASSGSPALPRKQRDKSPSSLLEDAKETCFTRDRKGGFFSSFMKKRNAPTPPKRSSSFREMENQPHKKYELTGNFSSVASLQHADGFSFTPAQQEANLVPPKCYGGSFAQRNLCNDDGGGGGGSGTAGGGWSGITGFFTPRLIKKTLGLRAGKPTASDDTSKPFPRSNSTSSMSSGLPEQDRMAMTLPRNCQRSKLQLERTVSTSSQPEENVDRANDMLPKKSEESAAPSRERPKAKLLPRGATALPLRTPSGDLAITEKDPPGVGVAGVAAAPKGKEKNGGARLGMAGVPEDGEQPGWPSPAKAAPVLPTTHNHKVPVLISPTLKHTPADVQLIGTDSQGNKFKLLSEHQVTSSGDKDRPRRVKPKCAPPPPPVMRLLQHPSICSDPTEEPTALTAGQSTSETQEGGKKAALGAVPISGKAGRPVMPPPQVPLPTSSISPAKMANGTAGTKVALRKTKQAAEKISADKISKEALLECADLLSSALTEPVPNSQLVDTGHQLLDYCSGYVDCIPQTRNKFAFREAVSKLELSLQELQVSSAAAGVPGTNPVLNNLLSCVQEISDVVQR
Summary of the method: (§1)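 Percent inhibition of each kinase was measured with the inhibitor at 0.1 µM and at 1 µM, as part of a 200-kinase human selectivity panel.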

[2] = molecular target: T2, CDK1/cycB (Homo sapiens, UniProt P06493); settings: read-out: Percentage inhibition; for inhibition at 0.1 µM: 0.1 µM inhibitor; for inhibition at 1 µM: 1 µM inhibitor
T2 construct: purchased Nanosyn (enzymatic panel); SGC in-house recombinant human kinases (DSF panel); Invitrogen (ALK1-6)
Summary of the method: as §1

[3] = molecular target: T3, IGF1R (Homo sapiens, UniProt P08069); settings: read-out: Percentage inhibition; for inhibition at 0.1 µM: 0.1 µM inhibitor; for inhibition at 1 µM: 1 µM inhibitor
T3 construct: purchased Nanosyn (enzymatic panel); SGC in-house recombinant human kinases (DSF panel); Invitrogen (ALK1-6)
T3 sequence (P08069 31-1367): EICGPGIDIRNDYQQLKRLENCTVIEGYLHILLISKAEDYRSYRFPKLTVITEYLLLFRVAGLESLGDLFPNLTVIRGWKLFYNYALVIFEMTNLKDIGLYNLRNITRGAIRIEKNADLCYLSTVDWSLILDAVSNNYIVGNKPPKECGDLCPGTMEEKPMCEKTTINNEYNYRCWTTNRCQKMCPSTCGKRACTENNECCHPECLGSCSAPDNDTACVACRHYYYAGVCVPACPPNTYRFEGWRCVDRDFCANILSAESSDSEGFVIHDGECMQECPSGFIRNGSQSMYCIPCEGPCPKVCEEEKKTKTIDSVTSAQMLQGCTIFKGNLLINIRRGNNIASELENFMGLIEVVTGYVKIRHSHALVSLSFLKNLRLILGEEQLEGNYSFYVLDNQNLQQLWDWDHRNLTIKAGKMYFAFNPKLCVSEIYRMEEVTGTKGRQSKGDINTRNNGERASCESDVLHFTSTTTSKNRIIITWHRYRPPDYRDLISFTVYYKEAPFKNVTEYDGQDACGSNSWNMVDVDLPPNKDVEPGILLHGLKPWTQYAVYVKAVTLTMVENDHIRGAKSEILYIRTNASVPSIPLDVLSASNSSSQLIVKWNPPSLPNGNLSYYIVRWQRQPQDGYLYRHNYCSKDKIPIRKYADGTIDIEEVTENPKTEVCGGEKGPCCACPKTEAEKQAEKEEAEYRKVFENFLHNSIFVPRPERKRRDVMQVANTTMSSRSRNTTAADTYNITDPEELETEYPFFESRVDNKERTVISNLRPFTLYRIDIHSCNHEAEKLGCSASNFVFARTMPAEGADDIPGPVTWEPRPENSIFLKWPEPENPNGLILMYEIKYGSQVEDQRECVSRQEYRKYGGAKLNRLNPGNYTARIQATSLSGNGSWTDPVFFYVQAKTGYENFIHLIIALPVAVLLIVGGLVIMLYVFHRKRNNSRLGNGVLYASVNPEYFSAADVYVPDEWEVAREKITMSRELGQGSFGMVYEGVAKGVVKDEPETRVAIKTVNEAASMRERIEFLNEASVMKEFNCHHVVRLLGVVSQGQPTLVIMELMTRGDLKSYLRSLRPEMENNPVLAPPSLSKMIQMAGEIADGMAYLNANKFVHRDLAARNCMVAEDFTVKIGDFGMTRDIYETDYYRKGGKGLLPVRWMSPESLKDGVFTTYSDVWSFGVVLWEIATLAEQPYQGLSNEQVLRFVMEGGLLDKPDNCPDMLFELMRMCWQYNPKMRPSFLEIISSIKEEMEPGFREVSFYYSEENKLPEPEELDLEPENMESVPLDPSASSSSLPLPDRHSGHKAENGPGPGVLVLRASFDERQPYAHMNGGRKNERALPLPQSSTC
Summary of the method: as §1

[4] = molecular target: T4, MRCKβ (Homo sapiens, UniProt Q9Y5S2); settings: read-out: Percentage inhibition; for inhibition at 0.1 µM: 0.1 µM inhibitor; for inhibition at 1 µM: 1 µM inhibitor
T4 construct: purchased Nanosyn (enzymatic panel); SGC in-house recombinant human kinases (DSF panel); Invitrogen (ALK1-6)
T4 sequence (Q9Y5S2 whole entry): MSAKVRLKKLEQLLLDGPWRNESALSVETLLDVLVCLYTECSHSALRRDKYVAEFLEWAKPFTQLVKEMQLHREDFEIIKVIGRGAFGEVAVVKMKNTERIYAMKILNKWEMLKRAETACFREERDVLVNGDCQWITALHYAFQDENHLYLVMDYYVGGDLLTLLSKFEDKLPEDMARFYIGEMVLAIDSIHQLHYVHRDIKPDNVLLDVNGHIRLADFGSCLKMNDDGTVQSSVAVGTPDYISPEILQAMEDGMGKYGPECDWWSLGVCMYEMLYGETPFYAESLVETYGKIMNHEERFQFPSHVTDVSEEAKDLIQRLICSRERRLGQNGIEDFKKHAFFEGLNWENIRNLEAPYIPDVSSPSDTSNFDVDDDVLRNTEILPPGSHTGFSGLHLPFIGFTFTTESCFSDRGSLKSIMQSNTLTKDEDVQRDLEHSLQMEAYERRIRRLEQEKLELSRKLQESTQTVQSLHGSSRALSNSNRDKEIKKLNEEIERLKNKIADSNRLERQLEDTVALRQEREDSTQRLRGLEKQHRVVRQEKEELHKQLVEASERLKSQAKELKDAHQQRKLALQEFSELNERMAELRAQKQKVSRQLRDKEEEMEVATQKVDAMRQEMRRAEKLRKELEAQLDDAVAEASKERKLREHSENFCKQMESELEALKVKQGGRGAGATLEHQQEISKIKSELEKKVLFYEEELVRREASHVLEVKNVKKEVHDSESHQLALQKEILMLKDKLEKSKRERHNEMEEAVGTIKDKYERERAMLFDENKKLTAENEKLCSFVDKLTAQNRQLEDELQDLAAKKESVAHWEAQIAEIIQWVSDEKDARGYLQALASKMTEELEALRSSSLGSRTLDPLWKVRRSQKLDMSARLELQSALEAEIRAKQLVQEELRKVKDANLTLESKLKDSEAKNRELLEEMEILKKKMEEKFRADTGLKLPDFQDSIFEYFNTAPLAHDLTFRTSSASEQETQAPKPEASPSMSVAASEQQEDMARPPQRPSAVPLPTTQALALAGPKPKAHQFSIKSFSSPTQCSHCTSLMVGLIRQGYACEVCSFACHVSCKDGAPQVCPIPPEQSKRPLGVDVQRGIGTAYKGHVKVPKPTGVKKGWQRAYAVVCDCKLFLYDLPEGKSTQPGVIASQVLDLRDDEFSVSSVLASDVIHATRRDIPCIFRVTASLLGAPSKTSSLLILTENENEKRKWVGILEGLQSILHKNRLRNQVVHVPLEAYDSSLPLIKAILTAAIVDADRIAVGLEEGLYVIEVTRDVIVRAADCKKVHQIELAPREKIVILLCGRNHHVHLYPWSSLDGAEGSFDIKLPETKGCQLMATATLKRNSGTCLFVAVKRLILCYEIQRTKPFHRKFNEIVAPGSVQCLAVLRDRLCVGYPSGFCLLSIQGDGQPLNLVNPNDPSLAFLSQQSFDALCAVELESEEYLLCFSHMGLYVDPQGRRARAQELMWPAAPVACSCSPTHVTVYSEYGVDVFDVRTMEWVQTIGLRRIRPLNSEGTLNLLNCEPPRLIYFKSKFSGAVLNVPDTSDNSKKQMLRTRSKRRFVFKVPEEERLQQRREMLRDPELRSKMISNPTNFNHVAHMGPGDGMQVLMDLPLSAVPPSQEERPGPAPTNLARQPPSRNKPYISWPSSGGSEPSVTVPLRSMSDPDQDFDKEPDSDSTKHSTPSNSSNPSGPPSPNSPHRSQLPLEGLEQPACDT
Summary of the method: as §1

[5] = molecular target: T5, NEK2 (Homo sapiens, UniProt P51955); settings: read-out: Percentage inhibition; for inhibition at 0.1 µM: 0.1 µM inhibitor; for inhibition at 1 µM: 1 µM inhibitor
T5 construct: purchased Nanosyn (enzymatic panel); SGC in-house recombinant human kinases (DSF panel); Invitrogen (ALK1-6)
T5 sequence (P51955 1-445): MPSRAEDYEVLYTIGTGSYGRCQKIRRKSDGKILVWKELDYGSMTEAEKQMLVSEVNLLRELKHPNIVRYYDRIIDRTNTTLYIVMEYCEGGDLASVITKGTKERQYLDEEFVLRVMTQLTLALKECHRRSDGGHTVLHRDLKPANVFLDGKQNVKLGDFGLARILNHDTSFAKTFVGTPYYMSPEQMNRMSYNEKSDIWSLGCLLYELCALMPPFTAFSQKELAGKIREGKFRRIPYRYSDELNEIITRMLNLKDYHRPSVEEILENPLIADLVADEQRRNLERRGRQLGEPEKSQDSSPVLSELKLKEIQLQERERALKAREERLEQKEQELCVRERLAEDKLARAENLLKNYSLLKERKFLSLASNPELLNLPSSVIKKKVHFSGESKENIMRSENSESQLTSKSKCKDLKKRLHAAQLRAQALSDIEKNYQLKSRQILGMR
Summary of the method: as §1

[6] = molecular target: T6, SYK (Homo sapiens, UniProt P43405); settings: read-out: Percentage inhibition; for inhibition at 0.1 µM: 0.1 µM inhibitor; for inhibition at 1 µM: 1 µM inhibitor
T6 construct: purchased Nanosyn (enzymatic panel); SGC in-house recombinant human kinases (DSF panel); Invitrogen (ALK1-6)
Summary of the method: as §1

[7] = molecular target: T7, TBK1 (Homo sapiens, UniProt Q9UHD2); settings: read-out: Percentage inhibition; for inhibition at 0.1 µM: 0.1 µM inhibitor; for inhibition at 1 µM: 1 µM inhibitor
T7 construct: purchased Nanosyn (enzymatic panel); SGC in-house recombinant human kinases (DSF panel); Invitrogen (ALK1-6)
T7 sequence (Q9UHD2 1-729): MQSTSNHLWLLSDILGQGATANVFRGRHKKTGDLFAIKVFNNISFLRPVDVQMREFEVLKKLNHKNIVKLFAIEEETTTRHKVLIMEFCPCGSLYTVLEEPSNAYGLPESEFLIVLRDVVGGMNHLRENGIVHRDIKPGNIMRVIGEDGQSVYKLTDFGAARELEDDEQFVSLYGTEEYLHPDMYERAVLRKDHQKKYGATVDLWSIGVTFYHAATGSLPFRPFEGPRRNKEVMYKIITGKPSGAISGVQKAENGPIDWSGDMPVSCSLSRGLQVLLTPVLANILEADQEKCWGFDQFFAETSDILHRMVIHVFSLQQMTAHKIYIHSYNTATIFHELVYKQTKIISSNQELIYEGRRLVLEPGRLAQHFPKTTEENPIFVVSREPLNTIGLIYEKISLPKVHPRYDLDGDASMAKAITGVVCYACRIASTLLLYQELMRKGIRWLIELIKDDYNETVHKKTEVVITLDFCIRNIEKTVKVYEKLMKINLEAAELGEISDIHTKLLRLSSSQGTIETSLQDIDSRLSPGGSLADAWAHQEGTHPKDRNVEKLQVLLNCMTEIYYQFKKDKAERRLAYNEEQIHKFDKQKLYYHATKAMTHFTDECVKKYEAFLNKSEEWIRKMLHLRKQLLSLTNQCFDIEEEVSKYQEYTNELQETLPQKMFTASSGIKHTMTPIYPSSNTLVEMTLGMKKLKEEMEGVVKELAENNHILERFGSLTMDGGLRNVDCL
Summary of the method: as §1

[8] = molecular target: T8, TRKC (Homo sapiens, UniProt Q16288); settings: read-out: Percentage inhibition; for inhibition at 0.1 µM: 0.1 µM inhibitor; for inhibition at 1 µM: 1 µM inhibitor
T8 construct: purchased Nanosyn (enzymatic panel); SGC in-house recombinant human kinases (DSF panel); Invitrogen (ALK1-6)
T8 sequence (Q16288 32-839): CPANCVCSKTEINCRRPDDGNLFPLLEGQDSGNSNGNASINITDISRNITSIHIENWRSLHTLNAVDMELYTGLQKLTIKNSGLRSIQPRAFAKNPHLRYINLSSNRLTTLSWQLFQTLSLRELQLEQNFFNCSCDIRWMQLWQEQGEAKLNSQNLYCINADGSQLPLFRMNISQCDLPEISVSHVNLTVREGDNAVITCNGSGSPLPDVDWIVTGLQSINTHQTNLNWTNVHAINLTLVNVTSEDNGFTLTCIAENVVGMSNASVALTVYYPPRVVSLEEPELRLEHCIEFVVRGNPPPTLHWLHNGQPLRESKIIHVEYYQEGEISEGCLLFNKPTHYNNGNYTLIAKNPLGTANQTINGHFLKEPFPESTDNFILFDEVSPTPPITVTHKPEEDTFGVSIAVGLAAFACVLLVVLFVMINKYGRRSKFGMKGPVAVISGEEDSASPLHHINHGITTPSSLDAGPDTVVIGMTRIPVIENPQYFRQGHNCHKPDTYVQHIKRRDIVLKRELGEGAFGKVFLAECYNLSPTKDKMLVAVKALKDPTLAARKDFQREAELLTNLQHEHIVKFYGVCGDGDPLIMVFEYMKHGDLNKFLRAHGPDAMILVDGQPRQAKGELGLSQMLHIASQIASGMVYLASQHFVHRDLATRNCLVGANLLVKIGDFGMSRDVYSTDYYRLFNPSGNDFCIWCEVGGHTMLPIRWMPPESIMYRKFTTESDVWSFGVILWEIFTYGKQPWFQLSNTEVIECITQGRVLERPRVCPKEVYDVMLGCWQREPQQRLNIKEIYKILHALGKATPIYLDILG
Summary of the method: as §1

[9] = molecular target: T9, TSSK1 (Homo sapiens, UniProt Q9BXA7); settings: read-out: Percentage inhibition; for inhibition at 0.1 µM: 0.1 µM inhibitor; for inhibition at 1 µM: 1 µM inhibitor
T9 construct: purchased Nanosyn (enzymatic panel); SGC in-house recombinant human kinases (DSF panel); Invitrogen (ALK1-6)
T9 sequence (Q9BXA7 1-367): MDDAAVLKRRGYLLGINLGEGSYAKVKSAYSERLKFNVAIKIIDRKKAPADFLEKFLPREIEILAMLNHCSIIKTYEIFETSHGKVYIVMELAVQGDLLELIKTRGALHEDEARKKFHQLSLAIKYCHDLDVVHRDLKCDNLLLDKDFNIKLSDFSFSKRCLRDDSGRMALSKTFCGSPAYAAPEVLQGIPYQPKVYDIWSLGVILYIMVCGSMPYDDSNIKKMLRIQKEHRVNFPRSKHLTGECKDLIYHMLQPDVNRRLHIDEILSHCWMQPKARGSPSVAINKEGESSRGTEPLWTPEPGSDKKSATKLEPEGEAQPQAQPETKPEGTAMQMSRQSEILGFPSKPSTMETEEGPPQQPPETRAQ
Summary of the method: as §1

Percentage inhibition ([1]; 0.1 µM inhibitor, 0.1 µM) [%] | Structure (SMILES) | inhibition at 0.1 µM ([1]; 0.1 µM inhibitor) [%] | inhibition at 1 µM [1] [%] | inhibition at 0.1 µM [2] [%] | inhibition at 1 µM [2] [%] | inhibition at 0.1 µM [3] [%] | inhibition at 1 µM [3] [%] | inhibition at 0.1 µM [4] [%] | inhibition at 1 µM [4] [%] | inhibition at 0.1 µM [5] [%] | inhibition at 1 µM [5] [%] | inhibition at 0.1 µM [6] [%] | inhibition at 1 µM [6] [%] | inhibition at 0.1 µM [7] [%] | inhibition at 1 µM [7] [%] | inhibition at 0.1 µM [8] [%] | inhibition at 1 µM [8] [%] | inhibition at 0.1 µM [9] [%] | inhibition at 1 µM [9] [%]
> 50 | COc1cc(-c2cc(-c3cccc(O)c3)cnc2N)cc(OC)c1OC [K02288, 3-[6-amino-5-(3,4,5-trimethoxy-phenyl)-pyridin-3-yl]-phenol] | 66 | 85 | 1 | 1.5 | -3 | -1 | 0.6 | 2 | -2 | -2 | 0 | -2 | 1.5 | 3.7 | 2.7 | 2.4 | -1 | -2
– | c1ccc2c(-c3cnn4cc(-c5ccc(N6CCNCC6)cc5)cnc34)ccnc2c1 [LDN-193189] | 33 | 73 | 0.5 | 5 | 4.1 | 5.4 | 0 | 2.1 | 2.8 | 1.2 | -1 | -12 | 4.5 | 16 | 1.6 | 3.9 | 3.5 | 5.2
